# Experimental data from the kinase profiling compilation of Christmann-Franck et al. (2016).
# Key:
# Test in all cases: radiometric filter-binding kinase assay, Kinase HotSpot
# Details in all cases: compound 0.5 µM; ATP 10 µM
# AKT2 (human) = AKT2 (human) (UniProt P31751)
# BLK (human) = BLK (human) (UniProt P51451)
# BMX (human) = BMX (human) (UniProt P51813)
# CDK4 CCND3 (human) = CDK4 CCND3 (human) (UniProt P30281+P11802)
# CDK7 CCNH MNAT1 (human) = CDK7 CCNH MNAT1 (human) (UniProt P50613+P51948+P51946)
# Chain of CDK7 CCNH MNAT1 (human) (P50613 whole entry, looked up): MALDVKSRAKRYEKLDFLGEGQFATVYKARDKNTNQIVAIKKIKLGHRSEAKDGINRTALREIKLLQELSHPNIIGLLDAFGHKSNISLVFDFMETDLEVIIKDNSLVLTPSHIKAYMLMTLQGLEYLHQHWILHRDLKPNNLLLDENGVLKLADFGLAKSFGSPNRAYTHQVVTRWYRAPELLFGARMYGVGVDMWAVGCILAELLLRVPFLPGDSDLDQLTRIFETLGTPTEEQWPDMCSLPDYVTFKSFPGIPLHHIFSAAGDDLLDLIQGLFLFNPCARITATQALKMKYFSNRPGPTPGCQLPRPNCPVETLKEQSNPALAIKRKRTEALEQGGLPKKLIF
# Chain of CDK7 CCNH MNAT1 (human) (P51946 whole entry, looked up): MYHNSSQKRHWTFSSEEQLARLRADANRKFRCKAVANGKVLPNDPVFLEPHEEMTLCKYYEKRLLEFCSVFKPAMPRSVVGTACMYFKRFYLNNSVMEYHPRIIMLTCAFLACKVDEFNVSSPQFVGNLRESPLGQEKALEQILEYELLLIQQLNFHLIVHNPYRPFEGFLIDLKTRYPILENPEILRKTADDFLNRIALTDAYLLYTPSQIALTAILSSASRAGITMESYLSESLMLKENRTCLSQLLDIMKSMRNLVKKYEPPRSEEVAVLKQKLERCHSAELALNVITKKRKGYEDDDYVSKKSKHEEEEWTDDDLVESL
# Chain of CDK7 CCNH MNAT1 (human) (P51948 whole entry, looked up): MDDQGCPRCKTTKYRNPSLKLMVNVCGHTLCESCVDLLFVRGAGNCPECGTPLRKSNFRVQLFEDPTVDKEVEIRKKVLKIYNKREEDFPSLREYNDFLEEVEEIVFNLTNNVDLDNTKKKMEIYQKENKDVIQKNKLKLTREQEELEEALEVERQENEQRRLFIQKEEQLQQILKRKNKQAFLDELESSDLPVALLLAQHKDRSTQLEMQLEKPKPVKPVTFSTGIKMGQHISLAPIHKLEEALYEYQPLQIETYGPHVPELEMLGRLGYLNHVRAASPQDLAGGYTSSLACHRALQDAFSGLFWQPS
# CSNK1D (human) = CSNK1D (human) (UniProt P48730)
# DCLK2 (human) = DCLK2 (human) (UniProt Q8N568)
# DDR2 (human) = DDR2 (human) (UniProt Q16832)
# EPHA7 (human) = EPHA7 (human) (UniProt Q15375)
# EPHA8 (human) = EPHA8 (human) (UniProt P29322)
# FGFR1 (human) = FGFR1 (human) (UniProt P11362)
# FGFR3 (human) = FGFR3 (human) (UniProt P22607)
# GRK4 (human) = GRK4 (human) (UniProt P32298)
# GSG2 (human) = GSG2 (human) (UniProt Q8TF76)
# HCK (human) = HCK (human) (UniProt P08631)
# INSRR (human) = INSRR (human) (UniProt P14616)
# MAPK12 (human) = MAPK12 (human) (UniProt P53778)
# Chain of MAPK12 (human) (P53778 whole entry, looked up): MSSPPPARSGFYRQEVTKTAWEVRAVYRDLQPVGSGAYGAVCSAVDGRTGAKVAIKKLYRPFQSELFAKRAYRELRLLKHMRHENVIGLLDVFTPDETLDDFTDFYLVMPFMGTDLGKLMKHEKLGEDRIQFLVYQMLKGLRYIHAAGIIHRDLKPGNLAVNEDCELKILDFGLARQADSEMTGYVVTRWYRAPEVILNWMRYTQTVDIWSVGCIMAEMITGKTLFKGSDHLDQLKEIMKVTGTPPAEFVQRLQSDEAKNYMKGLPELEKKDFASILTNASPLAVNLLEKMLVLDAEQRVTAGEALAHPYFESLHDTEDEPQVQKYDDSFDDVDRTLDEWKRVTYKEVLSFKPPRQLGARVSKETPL
# MAPK13 (human) = MAPK13 (human) (UniProt O15264)
# MARK4 (human) = MARK4 (human) (UniProt Q96L34)
# MST4 (human) = MST4 (human) (UniProt Q9P289)
# NEK7 (human) = NEK7 (human) (UniProt Q8TDX7)
# Chain of NEK7 (human) (Q8TDX7 whole entry, looked up): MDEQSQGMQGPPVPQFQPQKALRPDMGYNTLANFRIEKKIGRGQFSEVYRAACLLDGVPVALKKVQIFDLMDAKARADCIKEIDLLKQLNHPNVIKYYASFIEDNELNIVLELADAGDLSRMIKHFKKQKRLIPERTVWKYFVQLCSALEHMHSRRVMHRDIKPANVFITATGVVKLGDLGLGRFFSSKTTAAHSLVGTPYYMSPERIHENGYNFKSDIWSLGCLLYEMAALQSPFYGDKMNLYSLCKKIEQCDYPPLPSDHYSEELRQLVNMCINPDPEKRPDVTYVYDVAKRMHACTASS
# PKN2 (human) = PKN2 (human) (UniProt Q16513)
# PLK1 (human) = PLK1 (human) (UniProt P53350)
# Chain of PLK1 (human) (P53350 whole entry, looked up): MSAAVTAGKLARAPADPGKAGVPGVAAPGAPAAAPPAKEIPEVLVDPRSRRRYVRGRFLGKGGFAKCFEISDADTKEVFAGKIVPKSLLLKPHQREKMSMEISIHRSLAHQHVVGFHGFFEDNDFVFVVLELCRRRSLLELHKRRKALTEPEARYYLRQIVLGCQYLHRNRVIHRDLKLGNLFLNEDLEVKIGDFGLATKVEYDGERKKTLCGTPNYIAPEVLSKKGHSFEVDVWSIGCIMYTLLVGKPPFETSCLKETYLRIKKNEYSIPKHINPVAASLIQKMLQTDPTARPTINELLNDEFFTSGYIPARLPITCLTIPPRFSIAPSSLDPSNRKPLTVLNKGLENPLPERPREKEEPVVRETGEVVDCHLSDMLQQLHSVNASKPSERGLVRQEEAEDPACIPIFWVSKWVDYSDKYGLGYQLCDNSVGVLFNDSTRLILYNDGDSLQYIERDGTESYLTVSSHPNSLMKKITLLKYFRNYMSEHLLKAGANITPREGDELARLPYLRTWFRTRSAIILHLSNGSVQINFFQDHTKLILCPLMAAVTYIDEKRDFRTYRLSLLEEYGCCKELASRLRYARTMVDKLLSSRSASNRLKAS
# PRKCB1 (human) = PRKCB1 (human) (UniProt P05771)
# PRKCZ (human) = PRKCZ (human) (UniProt Q05513)
# RPS6KA5 KD2 (human) = RPS6KA5 KD2 (human) (UniProt O75582)
# RPS6KB2 (human) = RPS6KB2 (human) (UniProt Q9UBS0)
# SGK2 (human) = SGK2 (human) (UniProt Q9HBY8)
# SRC (human) = SRC (human) (UniProt P12931)
# STK11 (human) = STK11 (human) (UniProt Q15831)
# STK17A (human) = STK17A (human) (UniProt Q9UEE5)
# TAOK1 (human) = TAOK1 (human) (UniProt Q7L7X3)
# TGFBR2 (human) = TGFBR2 (human) (UniProt P37173)
# WEE1 (human) = WEE1 (human) (UniProt P30291)
# WNK2 (human) = WNK2 (human) (UniProt Q9Y3S1)
# Chain of WNK2 (human) (Q9Y3S1 whole entry, looked up): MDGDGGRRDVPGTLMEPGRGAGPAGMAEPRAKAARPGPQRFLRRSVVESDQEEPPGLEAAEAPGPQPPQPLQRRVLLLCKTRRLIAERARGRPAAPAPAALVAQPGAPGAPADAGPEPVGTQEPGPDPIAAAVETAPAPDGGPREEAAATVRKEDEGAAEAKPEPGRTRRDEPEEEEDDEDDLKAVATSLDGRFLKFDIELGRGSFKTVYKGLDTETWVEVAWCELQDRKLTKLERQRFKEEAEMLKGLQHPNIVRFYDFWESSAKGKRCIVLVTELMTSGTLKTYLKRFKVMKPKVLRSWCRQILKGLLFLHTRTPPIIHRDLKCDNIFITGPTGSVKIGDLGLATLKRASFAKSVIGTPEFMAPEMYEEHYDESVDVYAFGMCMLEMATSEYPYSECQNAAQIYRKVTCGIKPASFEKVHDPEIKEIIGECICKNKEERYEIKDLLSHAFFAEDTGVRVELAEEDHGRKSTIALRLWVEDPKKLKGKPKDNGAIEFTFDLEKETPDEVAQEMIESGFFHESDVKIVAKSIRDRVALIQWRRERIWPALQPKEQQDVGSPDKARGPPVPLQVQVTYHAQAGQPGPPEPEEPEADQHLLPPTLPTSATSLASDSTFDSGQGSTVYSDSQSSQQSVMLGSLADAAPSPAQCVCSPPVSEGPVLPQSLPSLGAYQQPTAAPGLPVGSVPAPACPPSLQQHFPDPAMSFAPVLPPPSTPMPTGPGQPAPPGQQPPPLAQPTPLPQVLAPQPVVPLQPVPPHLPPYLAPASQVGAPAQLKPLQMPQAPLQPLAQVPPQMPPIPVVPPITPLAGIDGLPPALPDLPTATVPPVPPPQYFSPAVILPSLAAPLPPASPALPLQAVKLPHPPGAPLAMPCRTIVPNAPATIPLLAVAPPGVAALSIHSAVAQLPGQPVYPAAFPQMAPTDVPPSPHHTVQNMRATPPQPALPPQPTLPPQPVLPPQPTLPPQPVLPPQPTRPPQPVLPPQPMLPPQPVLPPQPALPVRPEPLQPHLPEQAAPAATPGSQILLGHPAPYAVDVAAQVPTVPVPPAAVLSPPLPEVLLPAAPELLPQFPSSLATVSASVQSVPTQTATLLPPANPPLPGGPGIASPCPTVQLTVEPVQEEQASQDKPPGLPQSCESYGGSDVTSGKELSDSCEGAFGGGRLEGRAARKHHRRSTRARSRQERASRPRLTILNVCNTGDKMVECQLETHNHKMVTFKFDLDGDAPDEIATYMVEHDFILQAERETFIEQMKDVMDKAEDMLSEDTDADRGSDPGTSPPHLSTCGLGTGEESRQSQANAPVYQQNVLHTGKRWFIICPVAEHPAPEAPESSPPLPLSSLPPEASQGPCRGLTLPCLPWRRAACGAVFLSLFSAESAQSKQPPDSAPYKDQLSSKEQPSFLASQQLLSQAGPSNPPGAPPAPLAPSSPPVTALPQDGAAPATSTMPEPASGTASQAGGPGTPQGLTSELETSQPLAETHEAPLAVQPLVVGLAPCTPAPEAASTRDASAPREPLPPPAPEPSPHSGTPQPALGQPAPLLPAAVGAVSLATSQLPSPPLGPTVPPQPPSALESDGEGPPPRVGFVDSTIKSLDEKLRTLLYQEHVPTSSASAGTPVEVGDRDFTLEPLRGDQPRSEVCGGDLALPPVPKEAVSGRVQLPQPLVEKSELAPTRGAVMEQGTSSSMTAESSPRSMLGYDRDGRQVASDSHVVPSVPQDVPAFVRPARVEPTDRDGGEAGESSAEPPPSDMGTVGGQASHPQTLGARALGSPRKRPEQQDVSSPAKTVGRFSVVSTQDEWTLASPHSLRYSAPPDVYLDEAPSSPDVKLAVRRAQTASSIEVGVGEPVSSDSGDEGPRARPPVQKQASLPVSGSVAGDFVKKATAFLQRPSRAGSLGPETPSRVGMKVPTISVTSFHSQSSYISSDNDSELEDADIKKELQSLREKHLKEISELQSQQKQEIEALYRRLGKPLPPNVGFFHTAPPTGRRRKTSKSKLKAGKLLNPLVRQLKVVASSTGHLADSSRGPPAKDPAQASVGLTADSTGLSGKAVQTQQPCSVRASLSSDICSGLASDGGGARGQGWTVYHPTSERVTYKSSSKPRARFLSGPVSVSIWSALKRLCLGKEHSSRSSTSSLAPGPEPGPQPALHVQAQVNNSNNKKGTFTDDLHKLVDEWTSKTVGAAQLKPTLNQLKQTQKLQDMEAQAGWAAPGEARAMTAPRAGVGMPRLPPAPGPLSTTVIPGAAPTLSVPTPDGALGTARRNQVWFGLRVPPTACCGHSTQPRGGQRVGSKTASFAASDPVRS
# YES1 (human) = YES1 (human) (UniProt P07947)
# ZAP70 (human) = ZAP70 (human) (UniProt P43403)
# CDK5 CDK5R1 p25 (human) = CDK5 CDK5R1 p25 (human) (UniProt Q00535+Q15078)
# DMPK (human) = DMPK (human) (UniProt Q09013)
# IKBKE (human) = IKBKE (human) (UniProt Q14164)
# PAK4 (human) = PAK4 (human) (UniProt O96013)
# Chain of AKT2 (human) (P31751 whole entry, looked up): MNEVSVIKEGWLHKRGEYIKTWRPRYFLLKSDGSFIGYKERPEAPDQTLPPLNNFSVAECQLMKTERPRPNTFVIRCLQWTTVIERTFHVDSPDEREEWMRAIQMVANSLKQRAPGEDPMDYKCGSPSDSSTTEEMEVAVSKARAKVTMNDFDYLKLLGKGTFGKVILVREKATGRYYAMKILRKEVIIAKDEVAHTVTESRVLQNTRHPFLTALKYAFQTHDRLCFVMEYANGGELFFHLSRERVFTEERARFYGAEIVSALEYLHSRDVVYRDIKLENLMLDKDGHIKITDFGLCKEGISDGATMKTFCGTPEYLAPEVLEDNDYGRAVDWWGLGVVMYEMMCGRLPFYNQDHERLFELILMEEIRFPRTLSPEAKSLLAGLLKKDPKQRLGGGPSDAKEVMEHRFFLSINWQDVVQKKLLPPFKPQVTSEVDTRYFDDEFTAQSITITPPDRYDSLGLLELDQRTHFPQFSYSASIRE
compound,measurement,setting,value
O=S(=O)(c1cccc2cnccc12)N1CCCNCC1,residual activity,AKT2 (human),115%
same,residual activity,BLK (human),85.3%
same,residual activity,BMX (human),104%
same,residual activity,CDK4 CCND3 (human),98.5%
same,residual activity,CDK7 CCNH MNAT1 (human),95.5%
same,residual activity,CSNK1D (human),99.7%
same,residual activity,DCLK2 (human),83.9%
same,residual activity,DDR2 (human),92.2%
same,residual activity,EPHA7 (human),97.3%
same,residual activity,EPHA8 (human),106%
same,residual activity,FGFR1 (human),94.6%
same,residual activity,FGFR3 (human),94.4%
same,residual activity,GRK4 (human),104%
same,residual activity,GSG2 (human),86.6%
same,residual activity,HCK (human),95.9%
same,residual activity,INSRR (human),99.7%
same,residual activity,MAPK12 (human),99.3%
same,residual activity,MAPK13 (human),98.8%
same,residual activity,MARK4 (human),103%
same,residual activity,MST4 (human),90%
same,residual activity,NEK7 (human),97.5%
same,residual activity,PKN2 (human),103%
same,residual activity,PLK1 (human),103%
same,residual activity,PRKCB1 (human),94.6%
same,residual activity,PRKCZ (human),94.7%
same,residual activity,RPS6KA5 KD2 (human),62.1%
same,residual activity,RPS6KB2 (human),81.9%
same,residual activity,SGK2 (human),91.9%
same,residual activity,SRC (human),85.3%
same,residual activity,STK11 (human),97.6%
same,residual activity,STK17A (human),98.2%
same,residual activity,TAOK1 (human),123%
same,residual activity,TGFBR2 (human),97%
same,residual activity,WEE1 (human),99.9%
same,residual activity,WNK2 (human),99.3%
same,residual activity,YES1 (human),96.5%
same,residual activity,ZAP70 (human),108%
CNC(=O)c1cc(Oc2ccc(NC(=O)Nc3ccc(Cl)c(C(F)(F)F)c3)cc2)ccn1,residual activity,AKT2 (human),103%
same,residual activity,BLK (human),99.1%
same,residual activity,BMX (human),93.3%
same,residual activity,CDK4 CCND3 (human),114%
same,residual activity,CDK5 CDK5R1 p25 (human),97.2%
same,residual activity,CDK7 CCNH MNAT1 (human),102%
same,residual activity,CSNK1D (human),103%
same,residual activity,DCLK2 (human),102%
same,residual activity,DDR2 (human),3.41%
same,residual activity,DMPK (human),93.2%
same,residual activity,EPHA7 (human),80.7%
same,residual activity,EPHA8 (human),94.5%
same,residual activity,FGFR1 (human),90.9%
same,residual activity,FGFR3 (human),89.5%
same,residual activity,GRK4 (human),103%
same,residual activity,GSG2 (human),99.3%
same,residual activity,HCK (human),90.3%
same,residual activity,IKBKE (human),89.8%
same,residual activity,INSRR (human),104%
same,residual activity,MAPK12 (human),94.2%
same,residual activity,MAPK13 (human),97.5%
same,residual activity,MARK4 (human),98.1%
same,residual activity,MST4 (human),101%
same,residual activity,NEK7 (human),98.2%
same,residual activity,PAK4 (human),91.8%
same,residual activity,PKN2 (human),94.2%
same,residual activity,PLK1 (human),98.1%
same,residual activity,PRKCB1 (human),95.1%
same,residual activity,PRKCZ (human),94.5%
same,residual activity,RPS6KA5 KD2 (human),102%
same,residual activity,RPS6KB2 (human),103%
same,residual activity,SGK2 (human),103%
same,residual activity,STK11 (human),104%
same,residual activity,STK17A (human),96%
same,residual activity,TAOK1 (human),82%
same,residual activity,TGFBR2 (human),99.9%
same,residual activity,WEE1 (human),103%
same,residual activity,WNK2 (human),101%
same,residual activity,YES1 (human),82.8%
same,residual activity,ZAP70 (human),97.8%
CCOC(=O)c1c(C)[nH]c(/C=C2\C(=O)Nc3ccccc32)c1C,residual activity,AKT2 (human),87.6%
same,residual activity,BLK (human),80.2%
same,residual activity,BMX (human),93.5%
same,residual activity,CDK4 CCND3 (human),106%
same,residual activity,CDK5 CDK5R1 p25 (human),92.7%
same,residual activity,CDK7 CCNH MNAT1 (human),96.8%
same,residual activity,CSNK1D (human),96.4%
same,residual activity,DCLK2 (human),94.7%
same,residual activity,DDR2 (human),98%
same,residual activity,DMPK (human),101%
same,residual activity,EPHA7 (human),85.3%
same,residual activity,EPHA8 (human),88.7%
same,residual activity,FGFR1 (human),78.6%
same,residual activity,FGFR3 (human),80.4%
same,residual activity,GRK4 (human),82.9%
same,residual activity,GSG2 (human),92.9%
same,residual activity,HCK (human),92.6%
same,residual activity,IKBKE (human),93.5%
same,residual activity,INSRR (human),93.8%
same,residual activity,MAPK12 (human),101%
same,residual activity,MAPK13 (human),98.3%
same,residual activity,MARK4 (human),99.6%
same,residual activity,MST4 (human),101%
same,residual activity,NEK7 (human),102%
same,residual activity,PAK4 (human),71.8%
same,residual activity,PKN2 (human),92%
same,residual activity,PLK1 (human),107%
same,residual activity,PRKCB1 (human),103%
same,residual activity,PRKCZ (human),97%
same,residual activity,RPS6KA5 KD2 (human),91.8%
same,residual activity,RPS6KB2 (human),103%
same,residual activity,SGK2 (human),93.7%
same,residual activity,SRC (human),93.8%
same,residual activity,STK11 (human),85.2%
same,residual activity,STK17A (human),81.4%
same,residual activity,TAOK1 (human),100%
same,residual activity,TGFBR2 (human),101%
same,residual activity,WEE1 (human),91.2%
same,residual activity,WNK2 (human),100%
same,residual activity,YES1 (human),68.3%
same,residual activity,ZAP70 (human),98.8%
